Earlier results as cited in PMC10014483 (Bioorganic & Medicinal Chemistry Letters, 2023).

Columns and labels:
[1] = mice
SARS-CoV-2 = settings: transgenic mouse model of SARS-CoV-2 infection, orally effective

For `CC(C)(C)OC(=O)Nc1cccn([C@@H](CC2CC2)C(=O)N[C@@H](C[C@@H]2CCNC2=O)C(=O)C(=O)NCc2ccccc2)c1=O` [Compound 13b], the toxicity [1] is listed as “low toxicity”.
In the case of `CC1(C)[C@@H]2[C@@H](C(=O)N[C@H](C=O)C[C@@H]3CCNC3=O)N(C(=O)COc3ccc(OC(F)(F)F)cc3)C[C@@H]21` [MI-09], the “viral load in the lungs and lung lesions” value (SARS-CoV-2) is given as “significantly reduced”.
For `CC(C)(C)[C@H](NC(=O)C(F)(F)F)C(=O)N1C[C@H]2[C@@H]([C@H]1C(=O)N[C@H](C#N)C[C@@H]1CCNC1=O)C2(C)C` [Nirmatrelvir], the oral bioavailability is listed as “unsatisfied” and the plasma half-life is listed as “short”.
